Reference: BindingDB's records for doi:10.1021/acs.jmedchem.8b00931 (Umr 7273 Cnrs, 2018)

Key:
[1] = Inhibition of Rhinovirus B14 capsid infected in human HeLa Rh cells assessed as reduction in virus-induced cytopathic effect after 3 days by MTS assay
[2] = Inhibition of Rhinovirus A02 capsid infected in human HeLa Rh cells assessed as reduction in virus-induced cytopathic effect after 3 days by MTS assay
[3] = Inhibition of Rhinovirus A89 capsid infected in human HeLa Rh cells assessed as reduction in virus-induced cytopathic effect after 3 days by MTS assay
[4] = Inhibition of Rhinovirus A85 capsid infected in human HeLa Rh cells assessed as reduction in virus-induced cytopathic effect after 3 days by MTS assay
[5] = Inhibition of Rhinovirus A08 capsid infected in human HeLa Rh cells assessed as reduction in virus-induced cytopathic effect after 3 days by MTS assay
[6] = Inhibition of Rhinovirus A28 capsid infected in human HeLa Rh cells assessed as reduction in virus-induced cytopathic effect after 3 days by MTS assay
[7] = Inhibition of Rhinovirus B42 capsid infected in human HeLa Rh cells assessed as reduction in virus-induced cytopathic effect after 3 days by MTS assay
[8] = Inhibition of Rhinovirus B70 capsid infected in human HeLa Rh cells assessed as reduction in virus-induced cytopathic effect after 3 days by MTS assay

**Q.** With Cn1cc(-c2ccc(C[C@@H](O)c3ccc(-n4cccn4)cc3)c([N+](=O)[O-])c2)cn1 as the compound, how does the EC50 [1] read?
**A.** 2500 nM

**Q.** What about the EC50 [2] of the same compound?
**A.** > 128000 nM

**Q.** What about the EC50 [3] of the same compound?
**A.** 190 nM

**Q.** And the EC50 [4]?
**A.** > 128000 nM

**Q.** What about the EC50 [5] of the same compound?
**A.** > 128000 nM

**Q.** And the EC50 [6]?
**A.** > 128000 nM

**Q.** And the EC50 [7]?
**A.** > 128000 nM

**Q.** And the EC50 [8]?
**A.** > 128000 nM

**Q.** Which EC50 [1] does the source give for O=[N+]([O-])c1cc(Br)ccc1CC(O)c1ccc(-n2cccn2)cc1 (stereo not given) here?
**A.** 250 nM

**Q.** With Cn1cc(-c2ccc(C[C@H](O)c3ccc(-n4cccn4)cc3)c([N+](=O)[O-])c2)cn1 as the compound, how does the EC50 [1] read?
**A.** 35 nM

**Q.** What about the EC50 [2] of the same compound?
**A.** > 128000 nM

**Q.** What about the EC50 [3] of the same compound?
**A.** 2400 nM

**Q.** And the EC50 [4]?
**A.** > 128000 nM

**Q.** And the EC50 [5]?
**A.** > 128000 nM

**Q.** What about the EC50 [6] of the same compound?
**A.** > 128000 nM

**Q.** And the EC50 [7]?
**A.** > 128000 nM

**Q.** What about the EC50 [8] of the same compound?
**A.** 17 nM

**Q.** For Cn1cc(-c2ccc(C[C@H](O)c3ccc(-n4cncn4)cc3)c([N+](=O)[O-])c2)cn1, which EC50 [1] is on record?
**A.** 60 nM

**Q.** What about the EC50 [2] of the same compound?
**A.** > 128000 nM

**Q.** What about the EC50 [3] of the same compound?
**A.** > 128000 nM

**Q.** And the EC50 [4]?
**A.** > 128000 nM

**Q.** And the EC50 [5]?
**A.** > 128000 nM

**Q.** What about the EC50 [6] of the same compound?
**A.** > 128000 nM

**Q.** And the EC50 [7]?
**A.** > 128000 nM

**Q.** And the EC50 [8]?
**A.** 50 nM

**Q.** Which EC50 [1] does the source give for O=[N+]([O-])c1cc(-c2cncs2)ccc1CC(O)c1ccc(-n2cncn2)cc1 (stereo not given) here?
**A.** 400 nM

**Q.** With Cc1noc(C)c1-c1ccc(CC(O)c2ccc(-n3cncn3)cc2)c([N+](=O)[O-])c1 (stereo not given) as the compound, how does the EC50 [1] read?
**A.** > 247000 nM

**Q.** With O=[N+]([O-])c1cc(Br)ccc1CC(O)c1ccc(-n2cncn2)cc1 (stereo not given) as the compound, how does the EC50 [1] read?
**A.** 250 nM

**Q.** For Cc1noc(C)c1-c1ccc(CC(O)c2ccc(-n3cccn3)cc2)c([N+](=O)[O-])c1 (stereo not given), which EC50 [1] is on record?
**A.** > 247000 nM

**Q.** Which EC50 [1] does the source give for Cn1cc(-c2ccc(CC(O)c3ccc(-n4cccn4)cc3)c([N+](=O)[O-])c2)cn1 (stereo not given) here?
**A.** 200 nM

**Q.** Which EC50 [1] does the source give for O=[N+]([O-])c1cc(Cl)ccc1CC(O)c1ccc(-n2cccn2)cc1 (stereo not given) here?
**A.** 128 nM

**Q.** For Cn1nc(C(F)(F)F)cc1-c1ccc(CC(O)c2ccc(-c3ccncc3)cc2)c([N+](=O)[O-])c1 (stereo not given), which EC50 [1] is on record?
**A.** 1000 nM

**Q.** With O=[N+]([O-])c1cc(Br)ccc1CC(O)c1ccc(-c2ccncc2)cc1 (stereo not given) as the compound, how does the EC50 [1] read?
**A.** 590 nM

**Q.** Which results are given for Cn1cc(-c2ccc(C[C@@H](O)c3ccc(-n4cncn4)cc3)c([N+](=O)[O-])c2)cn1?
**A.** EC50 [1]: > 128000 nM; EC50 [2]: > 128000 nM; EC50 [3]: 1500 nM; EC50 [4]: > 128000 nM; EC50 [5]: > 128000 nM; EC50 [6]: > 128000 nM; EC50 [7]: > 128000 nM; EC50 [8]: > 20000 nM

**Q.** With COC(=O)c1ccc(CC(O)c2ccc(-c3ccncc3)cc2)c([N+](=O)[O-])c1 (stereo not given) as the compound, how does the EC50 [1] read?
**A.** 6400 nM

**Q.** For Cn1cc(-c2ccc(CC(O)c3ccc(-n4cncn4)cc3)c([N+](=O)[O-])c2)cn1 (stereo not given), which EC50 [1] is on record?
**A.** 180 nM

**Q.** With O=[N+]([O-])c1cc(-c2ccco2)ccc1CC(O)c1ccc(-c2ccncc2)cc1 (stereo not given) as the compound, how does the EC50 [1] read?
**A.** 1200 nM

**Q.** For O=[N+]([O-])c1cc(F)ccc1CC(O)c1ccc(-n2cccn2)cc1 (stereo not given), which EC50 [1] is on record?
**A.** 8700 nM

**Q.** With Cn1nc(C(F)(F)F)cc1-c1ccc(CC(O)c2ccc(-n3cccn3)cc2)c([N+](=O)[O-])c1 (stereo not given) as the compound, how does the EC50 [1] read?
**A.** 500 nM

**Q.** Which EC50 [1] does the source give for O=[N+]([O-])c1cc(-c2cccs2)ccc1CC(O)c1ccc(-c2ccncc2)cc1 (stereo not given) here?
**A.** 1300 nM

**Q.** For Cc1cc(CCCOc2c(C)cc(-c3noc(C(F)(F)F)n3)cc2C)on1 [3-(3,5-dimethyl-4-(3-(3-methylisoxazol-5-yl)propoxy)phenyl)-5-(trifluoromethyl)-1,2,4-oxadiazole], which EC50 [1] is on record?
**A.** 30 nM

**Q.** What about the EC50 [2] of the same compound?
**A.** 15 nM

**Q.** And the EC50 [3]?
**A.** 4 nM

**Q.** And the EC50 [4]?
**A.** 11 nM

**Q.** And the EC50 [5]?
**A.** 490 nM

**Q.** And the EC50 [6]?
**A.** 15 nM

**Q.** And the EC50 [7]?
**A.** > 128000 nM

**Q.** What about the EC50 [8] of the same compound?
**A.** 167 nM
